Article doi:10.1101/2025.11.24.689453v1, “Structural basis of stereochemical promiscuity by an umami taste receptor ortholog, Tas1r1/Tas1r3 from pufferfish” (biorxiv, 2025)

Experiments:
[1] = target: T1, pufferfish Tas1r1/Tas1r3LBD ("wild-type", free-cysteine eliminated) (Takifugu rubripes, UniProt Q2MHJ8+Q2MHK1, Q2MHJ8:C238S/Q2MHK1:C242S); assay: differential scanning fluorimetry; assay type: binding; details: read-out: Kd-app
T1 construct: Tas1r1 Met1-Ser501 with C-terminal PA tag, Tas1r3 Met1-Ser496 with C-terminal FLAG tag; Endo H treated for crystals
Text: (§1) differential scanning fluorimetry on pufferfish Tas1r1/Tas1r3LBD ("wild-type", free-cysteine eliminated)

[2] = target: T2, full-length pufferfish Tas1r1/Tas1r3 (Takifugu rubripes, UniProt Q2MHJ8+Q2MHK1); assay: luminometric Ca2+ response (mt-clytin-II), HEK293T; assay type: cell-based; details: agonist
T2 construct: full-length heterodimer, transiently expressed in HEK293T with rat G15i2 and mt-apoclytin-II
T2 sequence (Q2MHK1 25-845): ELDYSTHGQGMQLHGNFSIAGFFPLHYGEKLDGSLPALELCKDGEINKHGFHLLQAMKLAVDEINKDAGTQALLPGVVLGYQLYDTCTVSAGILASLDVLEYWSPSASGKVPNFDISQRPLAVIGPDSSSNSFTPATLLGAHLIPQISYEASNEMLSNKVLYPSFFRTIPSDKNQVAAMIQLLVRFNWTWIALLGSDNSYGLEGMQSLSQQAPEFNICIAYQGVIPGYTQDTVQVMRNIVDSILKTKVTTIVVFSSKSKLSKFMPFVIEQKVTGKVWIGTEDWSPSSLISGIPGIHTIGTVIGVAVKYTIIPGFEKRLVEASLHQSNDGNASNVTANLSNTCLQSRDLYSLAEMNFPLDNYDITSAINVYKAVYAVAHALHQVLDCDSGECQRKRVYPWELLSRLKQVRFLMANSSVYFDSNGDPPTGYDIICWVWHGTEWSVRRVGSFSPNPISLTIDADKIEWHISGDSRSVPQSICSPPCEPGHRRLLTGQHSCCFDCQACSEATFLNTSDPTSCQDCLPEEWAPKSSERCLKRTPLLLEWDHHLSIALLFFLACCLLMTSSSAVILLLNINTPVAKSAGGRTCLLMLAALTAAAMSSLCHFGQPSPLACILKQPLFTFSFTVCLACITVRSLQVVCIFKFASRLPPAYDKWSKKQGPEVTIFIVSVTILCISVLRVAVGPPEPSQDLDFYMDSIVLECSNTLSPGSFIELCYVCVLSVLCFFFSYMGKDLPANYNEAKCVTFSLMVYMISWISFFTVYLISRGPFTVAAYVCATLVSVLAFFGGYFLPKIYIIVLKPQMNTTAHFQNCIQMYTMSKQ
T2 sequence (Q2MHJ8 20-853): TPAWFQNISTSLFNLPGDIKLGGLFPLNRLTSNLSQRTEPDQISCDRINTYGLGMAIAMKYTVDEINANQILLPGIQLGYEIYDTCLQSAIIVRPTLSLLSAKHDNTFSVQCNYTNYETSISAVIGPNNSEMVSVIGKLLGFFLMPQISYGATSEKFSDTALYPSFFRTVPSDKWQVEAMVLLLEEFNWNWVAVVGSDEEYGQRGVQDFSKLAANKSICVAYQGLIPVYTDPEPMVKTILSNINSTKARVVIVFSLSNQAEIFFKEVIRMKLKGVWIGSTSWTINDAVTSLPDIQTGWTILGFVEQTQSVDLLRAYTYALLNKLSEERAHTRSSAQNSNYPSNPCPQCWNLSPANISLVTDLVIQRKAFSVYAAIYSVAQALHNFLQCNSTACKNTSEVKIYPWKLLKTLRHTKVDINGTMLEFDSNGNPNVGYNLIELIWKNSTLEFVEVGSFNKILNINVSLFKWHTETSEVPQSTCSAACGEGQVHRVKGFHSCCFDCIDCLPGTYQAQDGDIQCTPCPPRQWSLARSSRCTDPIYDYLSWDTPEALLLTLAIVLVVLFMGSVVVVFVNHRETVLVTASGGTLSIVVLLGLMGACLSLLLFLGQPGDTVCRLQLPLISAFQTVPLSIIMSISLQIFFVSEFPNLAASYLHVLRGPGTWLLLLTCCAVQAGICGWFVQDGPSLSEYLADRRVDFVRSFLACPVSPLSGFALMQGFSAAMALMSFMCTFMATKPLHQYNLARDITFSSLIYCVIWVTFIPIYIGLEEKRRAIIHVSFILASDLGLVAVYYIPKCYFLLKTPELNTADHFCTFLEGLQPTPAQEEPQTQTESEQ

[3] = target: T3, pufferfish Tas1r1/Tas1r3LBD ("wild-type", free-cysteine eliminated) (Takifugu rubripes, UniProt Q2MHJ8+Q2MHK1, Q2MHJ8:C238S/Q2MHK1:C242S/Q2MHK1:D306A); assay: differential scanning fluorimetry; assay type: binding; details: read-out: Kd-app
T3 construct: Tas1r1 Met1-Ser501 with C-terminal PA tag, Tas1r3 Met1-Ser496 with C-terminal FLAG tag; Endo H treated for crystals
Text: as §1

[4] = target: T4, pufferfish Tas1r1/Tas1r3LBD ("wild-type", free-cysteine eliminated) (Takifugu rubripes, UniProt Q2MHJ8+Q2MHK1, Q2MHJ8:C238S/Q2MHK1:C242S/Q2MHK1:E174A); assay: differential scanning fluorimetry; assay type: binding; details: read-out: Kd-app
T4 construct: Tas1r1 Met1-Ser501 with C-terminal PA tag, Tas1r3 Met1-Ser496 with C-terminal FLAG tag; Endo H treated for crystals
Text: as §1

[5] = target: T5, pufferfish Tas1r1/Tas1r3LBD ("wild-type", free-cysteine eliminated) (Takifugu rubripes, UniProt Q2MHJ8+Q2MHK1, Q2MHJ8:C238S/Q2MHK1:C242S/Q2MHK1:R469V); assay: differential scanning fluorimetry; assay type: binding; details: read-out: Kd-app
T5 construct: Tas1r1 Met1-Ser501 with C-terminal PA tag, Tas1r3 Met1-Ser496 with C-terminal FLAG tag; Endo H treated for crystals
Text: as §1

[6] = target: T6, pufferfish Tas1r1/Tas1r3LBD ("wild-type", free-cysteine eliminated) (Takifugu rubripes, UniProt Q2MHJ8+Q2MHK1, Q2MHJ8:C238S/Q2MHK1:C242S/Q2MHK1:Y385F); assay: differential scanning fluorimetry; assay type: binding; details: read-out: Kd-app
T6 construct: Tas1r1 Met1-Ser501 with C-terminal PA tag, Tas1r3 Met1-Ser496 with C-terminal FLAG tag; Endo H treated for crystals
Text: as §1

[7] = target: T1, pufferfish Tas1r1/Tas1r3LBD ("wild-type", free-cysteine eliminated); assay: X-ray crystal structure; DSF; assay type: binding; details: orthosteric site in both subunits

Kd [1] | Kd [3] | Kd [4] | Kd [5] | Kd [6] | Compound | response at 50 mM [2] | X-ray crystal structure; DSF [7]
1290 ± 140 µM |  |  |  |  | CC(C)(N)C(=O)O [2-methylalanine] |  | 
1440 ± 90 µM | 3140 ± 910 µM | 1690 ± 460 µM | 1880 ± 140 µM | 1980 ± 120 µM | C[C@@H](N)C(=O)O [D-alanine] | D-alanine and D-phenylalanine demonstrated a relatively high extent of binding and evoked low | 
 |  |  |  |  | N[C@H](Cc1ccccc1)C(=O)O [D-phenylalanine] | D-alanine and D-phenylalanine demonstrated a relatively high extent of binding and evoked low | D-phenylalanine-bound Tas1r1/Tas1r3LBD structure also adopts a compact dimerization manner
126 ± 7 µM | 97.9 ± 22.5 µM | 61.4 ± 17.7 µM | 203 ± 13 µM | 186 ± 13 µM | C[C@H](N)C(=O)O [L-alanine] | The receptor bound and responded to a wide range of L-amino acids, including L-alanine | 
345 ± 8 µM |  |  |  |  | CN[C@@H](C)C(=O)O [N-methyl-L-alanine] |  | 
